Drawing on PubChem BioAssay AID192 (DTP/NCI, 2004), this text covers T/C for 16 molecules.

Molecules are shown by their SMILES. Where “and” joins values, the source holds several entries; their conditions need not be identical. Identical values can stand only once. Toxic doses and inconclusive results are not listed.

The subject of this assay is BDF1 mice, B16 melanoma ip, median survival T/C. Put plainly: NCI In Vivo Anticancer Drug Screen. Data for tumor model B16 Melanoma (intraperitoneal) in B6D2F1 (BDF1) mice. The settings on record: endpoint: median survival time, higher = longer survival. As for the experimental part: The antitumor activity of compounds was measured in mice bearing transplantable tumors. Survival or tumor size were measured and the results are expressed as the measurement made in the treated group (T) divided by the measurement made in the vehicle treated control group (C). The tumor model used in this assay is B16 Melanoma (intraperitoneal) in B6D2F1 (BDF1) mice

[1] abbreviates: dose: 50.0 mg/kg/injection, schedule: Q01DX009 (ip), vehicle: saline.
[2] abbreviates: dose: 100.0 mg/kg/injection, schedule: Q01DX009 (ip), vehicle: saline.
[3] abbreviates: dose: 200.0 mg/kg/injection, schedule: Q01DX009 (ip), vehicle: saline.
The mark [4] stands for this setting: dose: 50.0 mg/kg/injection, schedule: Q01DX009 (ip), vehicle: saline with Tween-80.
The mark [5] stands for this setting: dose: 100.0 mg/kg/injection, schedule: Q01DX009 (ip), vehicle: saline with Tween-80.
Setting [6] is: dose: 200.0 mg/kg/injection, schedule: Q01DX009 (ip), vehicle: saline with Tween-80.
The mark [7] stands for this setting: dose: 25.0 mg/kg/injection, schedule: Q01DX009 (ip), vehicle: Klucel (hydroxypropylcellulose) (HPC).
Where [8] appears, read: dose: 50.0 mg/kg/injection, schedule: Q01DX009 (ip), vehicle: Klucel (hydroxypropylcellulose) (HPC).
Setting [9] is: dose: 100.0 mg/kg/injection, schedule: Q01DX009 (ip), vehicle: Klucel (hydroxypropylcellulose) (HPC).
Where [10] appears, read: dose: 200.0 mg/kg/injection, schedule: Q01DX009 (ip), vehicle: Klucel (hydroxypropylcellulose) (HPC).

Take `COc1ccc(CC2C(=O)NC(C)C(=O)N(C)C3Cc4ccc(cc4)Oc4cc(ccc4O)CC(C(=O)NC(C)C(=O)NC(C)C(=O)N2C)N(C)C3=O)cc1` (stereo unspecified): the T/C by setting is: (dose: 0.25 mg/kg/injection, schedule: Q01DX009 (ip), vehicle: saline with Tween-80) 117 % of control; (dose: 0.5 mg/kg/injection, schedule: Q01DX009 (ip), vehicle: saline with Tween-80) 122 % of control; (dose: 2.0 mg/kg/injection, schedule: Q01DX009 (ip), vehicle: saline with Tween-80) 152 % of control; (dose: 4.0 mg/kg/injection, schedule: Q01DX009 (ip), vehicle: saline with Tween-80) 175 % of control; (dose: 8.0 mg/kg/injection, schedule: Q01DX009 (ip), vehicle: saline with Tween-80) 154 % of control.

`CCCN(/C=C/C=C/C=[N+](CCC)CCC)CCC`: the T/C reads like this: (dose: 0.03 mg/kg/injection, schedule: Q01DX009 (ip), vehicle: saline) 107 % of control; (dose: 0.05 mg/kg/injection, schedule: Q01DX009 (ip), vehicle: saline) 109 % of control; (dose: 0.1 mg/kg/injection, schedule: Q01DX009 (ip), vehicle: saline) 103 % of control; (dose: 0.2 mg/kg/injection, schedule: Q01DX009 (ip), vehicle: saline) 96 % of control.

In the case of `CC(N)Cc1cn(C)c2ccccc12` (stereo unspecified), the T/C (dose: 6.25 mg/kg/injection, schedule: Q01DX009 (ip), vehicle: saline) was 122 % of control; the T/C (dose: 12.5 mg/kg/injection, schedule: Q01DX009 (ip), vehicle: saline) is 105 % of control; the T/C (dose: 25.0 mg/kg/injection, schedule: Q01DX009 (ip), vehicle: saline) is 102 % of control; the T/C under setting [1] is 105 % of control; the T/C under setting [2] was 88 % of control.

Regarding `CN(C)c1nc(N(C)C)nc(N(C)C)n1`, the T/C (dose: 10.0 mg/kg/injection, schedule: Q01DX009 (ip), vehicle: Klucel (hydroxypropylcellulose) (HPC)) is 108 % of control; the T/C (dose: 12.5 mg/kg/injection, schedule: Q01DX009 (ip), vehicle: saline with Tween-80) was 99 % of control and 106 % of control and 107 % of control; the T/C (dose: 20.0 mg/kg/injection, schedule: Q01DX009 (ip), vehicle: Klucel (hydroxypropylcellulose) (HPC)) is 94 % of control; the T/C (dose: 20.0 mg/kg/injection, schedule: Q01DX009 (ip), vehicle: saline with Tween-80) was 88 % of control and 99 % of control; the T/C (dose: 20.0 mg/kg/injection, schedule: Q02DX009 (ip), vehicle: saline with Tween-80) was 103 % of control and 107 % of control; the T/C (dose: 25.0 mg/kg/injection, schedule: Q02DX009 (ip), vehicle: Klucel (hydroxypropylcellulose) (HPC)) was 97 % of control. Further, the T/C runs as follows: (dose: 40.0 mg/kg/injection, schedule: Q01DX009 (ip), vehicle: Klucel (hydroxypropylcellulose) (HPC)) 100 % of control; (dose: 40.0 mg/kg/injection, schedule: Q01DX009 (ip), vehicle: saline with Tween-80) 93 % of control and 97 % of control; (dose: 40.0 mg/kg/injection, schedule: Q02DX009 (ip), vehicle: saline with Tween-80) 103 % of control and 112 % of control; (dose: 50.0 mg/kg/injection, schedule: Q02DX009 (ip), vehicle: Klucel (hydroxypropylcellulose) (HPC)) 96 % of control; (dose: 80.0 mg/kg/injection, schedule: Q01DX009 (ip), vehicle: Klucel (hydroxypropylcellulose) (HPC)) 100 % of control; (dose: 80.0 mg/kg/injection, schedule: Q01DX009 (ip), vehicle: saline with Tween-80) 100 % of control and 102 % of control. The T/C reads like this: (dose: 80.0 mg/kg/injection, schedule: Q02DX009 (ip), vehicle: saline with Tween-80) 104 % of control and 109 % of control; (dose: 100.0 mg/kg/injection, schedule: Q02DX009 (ip), vehicle: Klucel (hydroxypropylcellulose) (HPC)) 101 % of control; (dose: 160.0 mg/kg/injection, schedule: Q01DX009 (ip), vehicle: Klucel (hydroxypropylcellulose) (HPC)) 91 % of control; (dose: 160.0 mg/kg/injection, schedule: Q01DX009 (ip), vehicle: saline with Tween-80) 111 % of control; (dose: 160.0 mg/kg/injection, schedule: Q02DX009 (ip), vehicle: saline with Tween-80) 107 % of control and 115 % of control; (dose: 200.0 mg/kg/injection, schedule: Q02DX009 (ip), vehicle: Klucel (hydroxypropylcellulose) (HPC)) 124 % of control.

With `Cn1ccccc1=O`, the T/C by setting is: under setting [1], 124 % of control; under setting [2], 120 % of control; under setting [3], 117 % of control.

`CSc1nc(C)cc(Cl)n1`: the T/C under setting [4] is 104 % of control, the T/C under setting [5] was 113 % of control and the T/C under setting [6] is 90 % of control.

In the case of `COC(=O)C(C)CN1CCCCC1` (stereo unspecified), the T/C is 111 % of control (dose: 50.0 mg/kg/injection, schedule: Q04DX003 (ip), vehicle: saline); 111 % of control (dose: 100.0 mg/kg/injection, schedule: Q04DX003 (ip), vehicle: saline); 105 % of control (dose: 200.0 mg/kg/injection, schedule: Q04DX003 (ip), vehicle: saline).

Regarding `CCCCCCCCCC(=O)N(C)OC`, the T/C was 100 % of control (dose: 12.5 mg/kg/injection, schedule: Q04DX003 (ip), vehicle: saline with Tween-80); 104 % of control (dose: 25.0 mg/kg/injection, schedule: Q04DX003 (ip), vehicle: saline with Tween-80); 100 % of control (dose: 50.0 mg/kg/injection, schedule: Q04DX003 (ip), vehicle: saline with Tween-80).

As for `CNC=O`, the T/C runs as follows: under setting [2], 99 % of control; under setting [3], 110 % of control.

On to `CC(C)CNN(CC(C)C)C(N)=O`, for which the T/C reads like this: under setting [5], 111 % of control; under setting [6], 86 % of control.

As for `COc1cc2cc(c1Cl)N(C)C(=O)C[C@H](OC(=O)[C@H](C)N(C)C(C)=O)[C@]1(C)O[C@H]1[C@H](C)[C@@H]1C[C@@](O)(NC(=O)O1)[C@H](OC)C=C/C=C(\C)C2`, the T/C (dose: 0.5 micrograms/kg/injection, schedule: Q01DX009 (ip), vehicle: saline) was 110 % of control; the T/C (dose: 1.0 micrograms/kg/injection, schedule: Q01DX009 (ip), vehicle: saline + alcohol) is 163 % of control; the T/C (dose: 2.0 micrograms/kg/injection, schedule: Q01DX009 (ip), vehicle: saline) was 117 % of control; the T/C (dose: 2.0 micrograms/kg/injection, schedule: Q04DX003 (ip), vehicle: saline) was 95 % of control; the T/C (dose: 4.0 micrograms/kg/injection, schedule: Q01DX009 (ip), vehicle: saline) was 105 % of control; the T/C (dose: 4.0 micrograms/kg/injection, schedule: Q04DX003 (ip), vehicle: saline) is 100 % of control. The T/C is, setting by setting: (dose: 8.0 micrograms/kg/injection, schedule: Q01DX009 (ip), vehicle: saline) 155 % of control; (dose: 8.0 micrograms/kg/injection, schedule: Q04DX003 (ip), vehicle: saline) 97 % of control; (dose: 16.0 micrograms/kg/injection, schedule: Q01DX009 (ip), vehicle: saline) 157 % of control; (dose: 16.0 micrograms/kg/injection, schedule: Q04DX003 (ip), vehicle: saline) 108 % of control; (dose: 32.0 micrograms/kg/injection, schedule: Q01DX009 (ip), vehicle: saline) 97 % of control; (dose: 32.0 micrograms/kg/injection, schedule: Q04DX003 (ip), vehicle: saline) 100 % of control.

Consider `O=C(Nc1cccc(C(F)(F)F)c1)Nc1nccs1`, for which the T/C by setting is: under setting [7], 93 % of control; under setting [8], 95 % of control; under setting [9], 100 % of control; under setting [10], 101 % of control.

Take `COc1cc2c(cc1OC)C1CC(=O)C(CC(C)C)CN1CC2` (stereo unspecified): the T/C (dose: 6.25 mg/kg/injection, schedule: Q01DX009 (ip), vehicle: Klucel (hydroxypropylcellulose) (HPC)) was 100 % of control; the T/C under setting [7] is 100 % of control; the T/C under setting [8] was 95 % of control; the T/C under setting [9] is 97 % of control.

On to `CCN(CC)CCCCNc1ccc(NCCCCN(CC)CC)c2c1C(=O)c1ccccc1C2=O`, for which the T/C was 105 % of control (dose: 25.0 mg/kg/injection, schedule: Q01DX009 (ip), vehicle: saline with Tween-80) and 99 % of control under setting [4].

On to `CC(C)CC(NC(=O)C(CC(C)C)NC(=O)OCc1ccccc1)C(=O)O` (stereo unspecified), for which the T/C under setting [4] was 97 % of control, the T/C under setting [5] is 101 % of control and the T/C under setting [6] is 92 % of control.

On to `C/C(=N\O)C(=O)c1ccccc1`, for which the T/C is 100 % of control under setting [9]; 100 % of control under setting [10]; 103 % of control (dose: 400.0 mg/kg/injection, schedule: Q01DX009 (ip), vehicle: Klucel (hydroxypropylcellulose) (HPC)).
